Laboratory results: PMC7249419, “Probing contacts of inhibitor locked in transition states in the catalytic triad of DENV2 type serine protease and its mutants by 1H, 19F and 15 N NMR spectroscopy” (BMC Molecular and Cell Biology, 2020)
“And” between values parts separate entries of the source, which are not always exact repeats. Equal entries are not always repeated. “Also recorded” adds a separate entry of the source. Non-standard residues stand in square brackets, D forms with d. Residues, ends and D or L forms follow the SMILES beside them. ξ: configuration not given here. *: point of attachment. Benzoyl(2,6-F2) = O=C(c1c(F)cccc1F)*; Benzoyl(4-F) = O=C(c1ccc(F)cc1)*; ξR = N=C(N)NCCCC(N)C(=O)O; Nle = CCCC[C@H](N)C(=O)O; Bz = O=C(c1ccccc1)*; CF3 = FC(F)(F)*

Key:
DENV2 NS2B:NS3pro [1] = target: T1, DENV2 NS2B:NS3pro (Dengue virus type 2, UniProt P29990); experiment: Low field 1D 1H NMR of NS2B:NS3pro complexes (LBHB, H51-D75); assay type: binding, serotype II Dengue virus (DENV2)
T1 construct: DENV2 NS3pro (1–185; amino acids 1476–1660 of the polyprotein); NS2B (containing amino acids 1394–1440 of the Dengue 2 polyprotein); His tag; made in house; host or cells: Escherichia coli BL21Star (DE3)
Description: The NS2B:NS3pro complex was concentrated in disposable centrifugal concentrators (e.g. Amicon Ultra centrifugal filter units) with a molecular weight cut-off of 10 kDa. The complex was stable during concentration and no leakage of NS2B occurred. Buffer was exchanged using gravity flow desalting columns (GE Healthcare). […] The buffer-exchanged protein was concentrated to at least 0.3 mM. To obtain spectra in D2O buffer protein complex with inhibitor was lyophilized and dissolved adding only D2O water.
(§1) NMR experiments were acquired on Bruker Avance III spectrometers operating at 14.1 and 16.4 T at a temperature of 298 K. 2D ^1H-^15N TROSY -transverse relaxation optimized spectroscopy (TROSY) was used. ^19F experiments were acquired on a Bruker Avance III 16.4 T equipped with a QCIF CryoProbe, and internally referenced to the trifluoromethyl acetate counter ion (− 76.55 ppm). For solvent isotope shift measurements the buffer was exchanged from 90% H2O to 90% D2O using centrifugation filters by following dilution of the sample till starting concentration. The consistency of the procedure has been tested through comparison of the ^1H-^15N spectra before and after buffer exchange back to starting condition. There was no major structural perturbations resulted from exchange into deuterated buffer conditions. Protein detected experiments with ligand bound used a chemical shift perturbation (CSP) analysis was performed manually in CcpNmr Analysis 2.2.2 [60]. CSP was defined as the distance between two cross peaks in Hz, obtained as the square root of the sum of quadratic using DANGLE [61].

NS2B:NS3pro (S135A) = experiment: 19F and 1H-15N TROSY NMR binding to S135A mutant; parameters: species or system serotype II Dengue virus (DENV2); conditions: 1H-15N TROSY and 19F NMR
Excerpt: (§2) Reagents were from Sigma (St. Louis, MO, USA) unless otherwise stated. DENV2 NS3pro (1–185; amino acids 1476–1660 of the polyprotein) and NS2B (containing amino acids 1394–1440 of the Dengue 2 polyprotein) constructs were generated as described. H51N and S135A mutations of active site residues were introduced using the QuikChange Lightning kit (Agilent); a double H51N/S135A mutant was generated sequentially. All sequences were confirmed by Sanger sequencing. NS2B and NS3pro were expressed separately in Escherichia coli expression strain BL21Star (DE3) (Life Technologies) as described. Proteins were expressed in Terrific Broth medium (MP Biomedicals) for unlabelled protein or in different isotopic labelling combinations in ^1/2H, ^15N, ^12/13C-labelled M9 medium for labelled protein [54]. […]
(§3) NMR experiments were acquired on Bruker Avance III spectrometers operating at 14.1 and 16.4 T at a temperature of 298 K. 2D ^1H-^15N TROSY -transverse relaxation optimized spectroscopy (TROSY) was used. ^19F experiments were acquired on a Bruker Avance III 16.4 T equipped with a QCIF CryoProbe, and internally referenced to the trifluoromethyl acetate counter ion (− 76.55 ppm). […] Protein detected experiments with ligand bound used a chemical shift perturbation (CSP) analysis was performed manually in CcpNmr Analysis 2.2.2 [60]. […]

DENV2 NS2B:NS3pro [2] = target: T1, DENV2 NS2B:NS3pro; conditions: earlier NMR study; cited from earlier work
Excerpt: The unusual large low-filed shift of N^δ1H (19.93 ppm) of H51 combined with a N-H splitting of only 52 Hz clearly indicated the ...

DENV2 NS2B:NS3pro [3] = target: T1, DENV2 NS2B:NS3pro; experiment: 19F NMR monitoring of inhibitor binding to wild-type NS2B:NS3pro; parameters: species or system serotype II Dengue virus (DENV2); conditions: 298 K
Excerpt: The subside part of peptide types of inhibitors either improves or prevents correct binding with the enzyme in the most favourable way. One way to probe stereo-selectivity in enzymes is to study an inhibitor with the wrong stereochemistry around the carbon, Cα, of the P1 (Arg) (for abbreviation see Table 1). The key question is: could both isomers bind to NS2B:NS3pro complex? If yes, is there any difference in affinity between them. To challenge these questions two separated diastereomers of Ph-Bz-Lys-Lys-Arg-CF3-ketone (III) (Table 1) with low affinity were used to observe the binding. The isolated diastereomers were kept in solution with and without the NS2B/NS3 complex for two months with measuring at several points. For the first separated isomer (IIIa), only one ^19F resonance is observed at − 82.83 ppm in the unbound state (Fig. 1a). […]
as §3

NS2B:NS3pro (H51N) = experiment: 19F and 1H-15N TROSY NMR binding to H51N mutant; parameters: species or system serotype II Dengue virus (DENV2); conditions: 1H-15N TROSY and 19F NMR, same protein:inhibitor ratio as wild type
Excerpt: as §2, §3

DENV2 NS2B:NS3pro [4] = target: T1, DENV2 NS2B:NS3pro; experiment: 1H-15N TROSY chemical shifts/CSP, oxyanion hole and H51 of NS2B:NS3pro complexes; assay type: binding, serotype II Dengue virus (DENV2)
Description: (§4) The NS2B:NS3pro complex was concentrated in disposable centrifugal concentrators (e.g. Amicon Ultra centrifugal filter units) with a molecular weight cut-off of 10 kDa. The complex was stable during concentration and no leakage of NS2B occurred. Buffer was exchanged using gravity flow desalting columns (GE Healthcare). The NMR buffer contained 20 mM deuterated MES, 100 mM NaCl, 5 mM CaCl2, 0.02% NaN3, at pH 6.5. The buffer-exchanged protein was concentrated to at least 0.3 mM. To obtain spectra in D2O buffer protein complex with inhibitor was lyophilized and dissolved adding only D2O water.
as §1
Backbone resonance assignment of the NS2B:NS3pro with tetra peptide boronic acid (I) was performed as described previously by us with depositing to the BioMagResBank with accession code 26996 [10, 62], and compared with published earlier for the same inhibitor complex but with the linked construct Dengue I NS2B:NS3pro (BioMagResBank with accession code 19305). Backbone resonance assignment have been done in the same manner for the complex NS2B:NS3pro with the tetra peptide tfk ligand (II) as well and will be published elsewhere. Partial assignments of the ^1H and ^15N resonances presented in this publication of the apo form NS2B:NS3pro and its mutants in complex with inhibitors observed to the uncrowded area of the ^1H-^15N spectra are made by the extrapolation of corresponding cross peaks to the closest one known amino acids using CCPN program tool. […]

DENV2 NS2B:NS3pro [5] = target: T1, DENV2 NS2B:NS3pro; experiment: 19F NMR solvent isotope shift (H2O vs D2O), water accessibility of NS2B:NS3pro complex; parameters: species or system serotype II Dengue virus (DENV2); conditions: inhibitor bound to DENV2 NS2B:NS3pro
Description: The accessibility of water in the binding site of the complex with bound inhibitor was tested by studying the ^19F spectra of the complexes NS2B:NS3pro (II) in two different solvents: H2O and D2O (Fig. S2). […] This CSP was scaled versus the signals of the same group of the unbound ligand, ca 48 Hz (Fig. S2c). The conclusion is that ^19F nuclei of the benzene ring of the bound inhibitor are partly exposed to the solvent even in the bound state.
as §4, with “The buffer-exchanged protein was concentrated to at least 0.3 mM. To obtain spectra in D2O buffer protein complex with inhibitor was lyophilized and dissolved adding only D2O water.” left out
as §3

DENV2 NS2B:NS3pro [6] = target: T1, DENV2 NS2B:NS3pro; experiment: Biochemical protease activity assay, fluorogenic AMC substrate; parameters: species or system serotype II Dengue virus (DENV2); conditions: 50 mM HEPES pH 7.4, 150 mM NaCl, 10% ethylene glycol, 0.05% BSA, 0.0016% Brij-58; 80 nM enzyme; 20 μM Bz-nle-Lys-Arg-Arg-AMC; fluorescence 390/460 nm every 30 s for 30 min; three parameter IC50 fit
Description: Activity assays were carried out on a 96-well plate (white Cliniplate, Thermo Fisher Scientific Oy, Vantaa, Finland) in 50 mM HEPES, pH 7.4, 150 mM NaCl, 10% ethylene glycol, 0.05% BSA, 0.0016% Brij-58 with 80 nM enzyme using 20 μM Bz-nle-Lys-Arg-Arg-AMC (Bachem, Bubendorf, Switzerland) as substrate. Reagents were from Sigma (St. Louis, MO, USA) unless otherwise stated.
5 μl of 200 μM substrate in buffer and 2.5 μl of compound in DMSO or DMSO control were added to the plate. 42.5 μl of […] enzyme in buffer was added to start the reaction. Fluorescence was read every 30 s for 30 min at 390 nm excitation and 460 nm emission in a Fluorskan Ascent plate reader (Thermo Fisher Scientific Oy, Vantaa, Finland). Rates were fitted in the Ascent software and exported as Excel files. The rates were imported into GraphPad Prism (GraphPad Software Inc., La Jolla, CA, USA) and fitted to the standard three parameter IC50 equation.

CCCC[C@H](NC(=O)c1ccccc1)C(=O)N[C@@H](CCCCN)C(=O)N[C@@H](CCCNC(=N)N)C(=O)N[C@@H](CCCNC(=N)N)B(O)O [I, ((3S,6S,9S,12R)-17-amino-6-(4-aminobutyl)-3-butyl-9-(3-guanidinopropyl)-17-imino-1,4,7,10-tetraoxo-1-phenyl-2,5,8,11,16-pentaazaheptadecan-12-yl)boronic acid]
Decrease of Nδ1H one-bond coupling vs commonly reported serine proteases (DENV2 NS2B:NS3pro [1]; commonly 87-95 Hz): about 38 Hz
One bond JNH of Nδ1H H51, 19.93 ppm signal (DENV2 NS2B:NS3pro [1]; first tautomer): 52+/− 2 Hz and 52 Hz
One bond JNH of Nε2H H51 (DENV2 NS2B:NS3pro [1]; first tautomer): 90+/− 2 Hz and 90 Hz
Nδ1H of H51, second tautomer, 1H chemical shift (DENV2 NS2B:NS3pro [1]; most persistent signal, pH 8.5 Tris): 19.77 ppm and 19.772 ppm
pH dependence of low field 1H chemical shift (DENV2 NS2B:NS3pro [1]; pH 5.5 to 8.5): None of the signals in this region shift between pH 5.5 and 8.5
Nδ1H of H51, first tautomer, 1H chemical shift (DENV2 NS2B:NS3pro [1]; pH 6.0 MES, not always observed): 19.93 ppm and 19.933 ppm
One bond JNH of Nδ1H H51, 19.77 ppm signal (DENV2 NS2B:NS3pro [1]; second tautomer): 52+/− 2 Hz and 52 Hz
Binding to S135A mutant (NS2B:NS3pro (S135A)): do not interact with the S135A mutant; also recorded: no binding was observed; also recorded: complete absence of any binding
N-H splitting of Nδ1H of H51 (DENV2 NS2B:NS3pro [2]): 52 Hz
NδH shift of H51 in complex (DENV2 NS2B:NS3pro [2]): 19.93 ppm
Binding to NS2B:NS3pro / affinity in words (NMR) (DENV2 NS2B:NS3pro [3]): the former has higher affinity than the latter
Affinity / complex formation with H51N mutant (NS2B:NS3pro (H51N)): saturation of the protease and inhibitor complex could not be reached
H51-HN 1H chemical shift in complex (DENV2 NS2B:NS3pro [4]; apo 10.56 and 10.18 ppm): 10.03 ppm
H51-HN 15N chemical shift in complex (DENV2 NS2B:NS3pro [4]; apo 114.44 and 114.37 ppm): 113.50 ppm
Amide CSP of the oxyanion hole (DENV2 NS2B:NS3pro [4]; complex vs apo form): ~0.3 ppm
Interaction with oxyanion hole (DENV2 NS2B:NS3pro [4]; complex with NS2B:NS3pro): we did not observe interaction of G133 in the oxyanion hole; also recorded: no interaction with the oxyanion hole
Bulk water access to active site (DENV2 NS2B:NS3pro [5]): bulk water is excluded from the active site

CCCC[C@H](NC(=O)c1c(F)cccc1F)C(=O)N[C@@H](CCCCN)C(=O)N[C@@H](CCCNC(=N)N)C(=O)NC(CCCNC(=N)N)C(=O)C(F)(F)F (stereo partly drawn) [II, N-((9S,12S,15S)-1-amino-12-(4-aminobutyl)-9-(3-guanidinopropyl)-1-imino-8,11,14-trioxo-6-(2,2,2-trifluoroacetyl)-2,7,10,13-tetraazanonadecan-15-yl)-2,6-difluorobenzamide] ({Benzoyl(2,6-F2)}-[Nle]KR[ξR]-CF3)
IC50 (DENV2 NS2B:NS3pro [6]): 19 µM

CCCC[C@H](NC(=O)c1ccccc1)C(=O)N[C@@H](CCCCN)C(=O)N[C@@H](CCCNC(=N)N)C(=O)NC(CCCNC(=N)N)C(=O)C(F)(F)F (stereo partly drawn) [IV, N-((9S,12S,15S)-1-amino-12-(4-aminobutyl)-9-(3-guanidinopropyl)-1-imino-8,11,14-trioxo-6-(2,2,2-trifluoroacetyl)-2,7,10,13-tetraazanonadecan-15-yl)benzamide] (Bz-[Nle]KR[ξR]-CF3)
IC50 (DENV2 NS2B:NS3pro [6]): 11 µM

CCCC[C@H](NC(=O)c1ccc(F)cc1)C(=O)N[C@@H](CCCCN)C(=O)N[C@@H](CCCNC(=N)N)C(=O)NC(CCCNC(=N)N)C(=O)C(F)(F)F (stereo partly drawn) [V, N-((9S,12S,15S)-1-amino-12-(4-aminobutyl)-9-(3-guanidinopropyl)-1-imino-8,11,14-trioxo-6-(2,2,2-trifluoroacetyl)-2,7,10,13-tetraazanonadecan-15-yl)-4-fluorobenzamide] ({Benzoyl(4-F)}-[Nle]KR[ξR]-CF3)
IC50 (DENV2 NS2B:NS3pro [6]): 24 µM

Bz-Nle-Lys-Arg-Arg-CF3-ketone [IVa, isomer IVa of (IV), free 19F at − 82.82 ppm]
Binding to NS2B:NS3pro / affinity in words (NMR) (DENV2 NS2B:NS3pro [3]): the signal of only one isomer (IVa) re-appeared
